Laboratory results from patent publication US20240226115A1, “AXL INHIBITOR COMPOUNDS” (ARCUS BIOSCIENCES, INC., priority 2021, published 2024).

biological target: T1, recombinant human TYRO3 (Homo sapiens, UniProt Q06418); test: HTRF KinEASE-TK biochemical potency, TYRO3; details: 1 nM TYRO3, 700 μM ATP
T1 construct: purchased Invitrogen
T1 sequence (Q06418 41-890): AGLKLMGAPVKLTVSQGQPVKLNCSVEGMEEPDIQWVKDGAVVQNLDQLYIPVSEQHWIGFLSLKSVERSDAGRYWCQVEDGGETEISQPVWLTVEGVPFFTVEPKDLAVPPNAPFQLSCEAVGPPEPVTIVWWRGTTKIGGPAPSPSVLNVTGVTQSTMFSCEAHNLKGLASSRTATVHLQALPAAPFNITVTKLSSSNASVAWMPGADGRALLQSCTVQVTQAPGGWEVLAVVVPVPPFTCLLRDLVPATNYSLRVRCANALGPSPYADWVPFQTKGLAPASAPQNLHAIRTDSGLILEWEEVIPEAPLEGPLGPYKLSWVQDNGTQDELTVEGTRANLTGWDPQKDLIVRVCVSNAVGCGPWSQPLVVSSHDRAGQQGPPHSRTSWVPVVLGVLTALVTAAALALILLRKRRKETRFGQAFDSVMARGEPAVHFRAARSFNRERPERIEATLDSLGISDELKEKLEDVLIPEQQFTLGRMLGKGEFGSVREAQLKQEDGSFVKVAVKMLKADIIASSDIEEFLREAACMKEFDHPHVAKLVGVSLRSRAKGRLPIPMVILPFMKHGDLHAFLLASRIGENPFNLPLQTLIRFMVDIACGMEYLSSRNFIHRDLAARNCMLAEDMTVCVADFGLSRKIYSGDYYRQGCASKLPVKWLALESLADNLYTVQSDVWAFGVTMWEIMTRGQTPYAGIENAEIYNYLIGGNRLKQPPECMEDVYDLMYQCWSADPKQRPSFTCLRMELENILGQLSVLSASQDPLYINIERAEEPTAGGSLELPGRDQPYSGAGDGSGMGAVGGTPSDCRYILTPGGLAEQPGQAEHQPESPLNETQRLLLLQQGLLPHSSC
Method: Purified recombinant human AXL, TYRO3 and MER proteins were purchased from Invitrogen™. 10 nM AXL, 2 nM TYRO3 or MER were incubated with varying concentrations of compounds in 50 mM HEPES, pH 7.4, 10 mM MgCl2, 0.01% BSA, 1 mM DTT and 2% DMSO in a total volume of 20 μl in a 384-well microplate (Corning™ #3640) at RT for 1 h. The AXL, TYRO3 and MER enzymatic reaction was initiated by transferring 10 μl of enzyme and compound mixture into 10 μl of 1.6 μM TK Substrate-biotin (HTRF® KinEASE-TK kit, Cisbio) and 1400 μM ATP pre-incubated in 50 mM HEPES, pH 7.4, 10 mM MgCl2, 0.01% BSA, 1 mM DTT in a 384-well microplate (Corning™ #3640) at RT, giving the final reaction conditions: 5 nM AXL, 1 nM TYRO3 or MER, 800 nM TK Substrate-biotin and 700 μM ATP in 50 mM HEPES, pH 7.4, 10 mM MgCl2, 0.01% BSA, 1 mM DTT and 1% DMSO with varying concentrations of compounds. Following 2 h incubation at RT, the AXL, TYRO3 and MER enzymatic reaction was stopped by transfer of 10 μl of reaction into 10 μl of detection mix (400 nM Streptavidin-XL665, 200-fold dilution TK Antibody-Cryptate and detection buffer, HTRF® KinEASE-TK kit, Cisbio) in a white 384-well microplate (Perkin Elmer, OptiPlate 384). After 1 h incubation at RT, the plate was put into a plate reader (Evision) to read at 665/620 nm (acceptor/donor) for HTRF. The value of the DMSO blank (MIN inhibition=100% activity) was used as a negative control. The positive control was established by adding 5 μl of enzyme and DMSO mixture into 10 μl of detection mix followed by addition of 5 μl of TK Substrate-biotin and ATP mixture (MAX inhibition=0% activity). To calculate the percent activity, Equation 1 was used. Ratio665/620 is the value at a given compound concentration: […]

Row | SMILES | IC50 [nM]
1 | C[C@H]1CCCN1C1(C)CCc2ccc(-c3cnc4[nH]nc(-c5ccc6c(c5)OCCNC6=O)c4c3)cc2CC1 (stereo partly drawn) [Example 24, 8-(5-{7-Methyl-7-[(2S)-2-methylpyrrolidin-1-yl]-6,7,8,9-tetrahydro-5H-benzo[7]annulen-2-yl}-1H-pyrazolo[3,4-b]pyridin-3-yl)-2,3,4,5-tetrahydro-1,4-benzoxazepin-5-one] | < 100
2 | O=C1NCCOc2cc(-c3n[nH]c4ncc(-c5ccc6c(c5)CCC(N5CCNCC5)CC6)cc34)ccc21 (stereo not shown) [Example 48, 8-{5-[7-(Piperazin-1-yl)-6,7,8,9-tetrahydro-5H-benzo[7]annulen-2-yl]-1H-pyrazolo[3,4-b]pyridin-3-yl}-2,3,4,5-tetrahydro-1,4-benzoxazepin-5-one] | < 100
3 | O=C1NCCOc2cc(-c3n[nH]c4ncc(-c5ccc6c(c5)CNCC6)cc34)ccc21 [Example 55, 8-(5-(1,2,3,4-Tetrahydroisoquinolin-7-yl)-1H-pyrazolo[3,4-b]pyridin-3-yl)-3,4-dihydrobenzo[f][1,4]oxazepin-5(2H)-one] | < 100
4 | C[C@@H]1CCCN1C1CCc2ccc(-c3cnc4[nH]nc(-c5ccc6c(c5)OCCC6(C)O)c4c3)cc2CC1 (stereo partly drawn) [Example 29, 4-Methyl-7-(5-{7-[(2R)-2-Methylpyrrolidin-1-yl]-6,7,8,9-tetrahydro-5H-benzo[7]annulen-2-yl}-1H-pyrazolo[3,4-b]pyridin-3-yl)-3,4-dihydro-2H-1-benzopyran-4-ol] | < 100
5 | O=C1NCCOc2cc(-c3n[nH]c4ncc(-c5ccc6c(c5)CCC(N5CCC5)CC6)cc34)ccc21 (stereo not shown) [Example 52, 8-(5-(7-(Azetidin-1-yl)-6,7,8,9-tetrahydro-5H-benzo[7]annulen-2-yl)-1H-pyrazolo[3,4-b]pyridin-3-yl)-3,4-dihydrobenzo[f][1,4]oxazepin-5(2H)-one] | < 100
6 | C[C@@H]1CCCN1C1CCc2ccc(-c3cnc4[nH]nc(-c5ccc6c(c5)OCC5(CCC5)NC6=O)c4c3)cc2CC1 (stereo partly drawn) [Example 37, 8-(5-{7-[(2R)-2-Methylpyrrolidin-1-yl]-6,7,8,9-tetrahydro-5H-benzo[7]annulen-2-yl}-1H-pyrazolo[3,4-b]pyridin-3-yl)-4,5-dihydro-2H-spiro[1,4-benzoxazepine-3,1′-cyclobutan]-5-one] | < 100
7 | O=C1NCCOc2cc(-c3n[nH]c4ncc(-c5ccc6c(c5)CCC(N[C@@H]5CCOC5)CC6)cc34)ccc21 (stereo partly drawn) [Example 46, 8-[5-(7-{[(3R)—Oxolan-3-yl]amino}-6,7,8,9-tetrahydro-5H-benzo[7]annulen-2-yl)-1H-pyrazolo[3,4-b]pyridin-3-yl]-2,3,4,5-tetrahydro-1,4-benzoxazepin-5-one] | < 100
8 | C[C@@H]1CCCN1C1(C)CCc2ccc(-c3cnc4[nH]nc(-c5ccc6c(c5)OCCNC6=O)c4c3)cc2CC1 (stereo partly drawn) [Example 23, 8-(5-{7-Methyl-7-[(2R)-2-methylpyrrolidin-1-yl]-6,7,8,9-tetrahydro-5H-benzo[7]annulen-2-yl}-1H-pyrazolo[3,4-b]pyridin-3-yl)-2,3,4,5-tetrahydro-1,4-benzoxazepin-5-one] | < 100
9 | C[C@@H]1CCCN1C1CCc2ccc(-c3cnc4[nH]nc(-c5ccc6c(c5F)OCCNC6=O)c4c3)cc2CC1 (stereo partly drawn) [Example 60, 9-Fluoro-8-(5-{7-[(2R)-2-methylpyrrolidin-1-yl]-6,7,8,9-tetrahydro-5H-benzo[7]annulen-2-yl}-1H-pyrazolo[3,4-b]pyridin-3-yl)-2,3,4,5-tetrahydro-1,4-benzoxazepin-5-one] | < 100
10 | O=C1NCCOc2cc(-c3n[nH]c4ncc(-c5ccc6c(c5)CCN(C(=O)C5CC5)CC6)cc34)ccc21 [Example 17, 8-[5-(3-Cyclopropanecarbonyl-2,3,4,5-tetrahydro-1H-3-benzazepin-7-yl)-1H-pyrazolo[3,4-b]pyridin-3-yl]-2,3,4,5-tetrahydro-1,4-benzoxazepin-5-one] | < 100
11 | CC1(C)NS(=O)(=O)c2cc(-c3n[nH]c4ncc(-c5ccc6c(c5)CCC(N5CCC[C@@H]5CO)CC6)cc34)ccc21 (stereo partly drawn) [Example 34, 6-(5-{7-[(2R)-2-(Hydroxymethyl)pyrrolidin-1-yl]-6,7,8,9-tetrahydro-5H-benzo[7]annulen-2-yl}-1H-pyrazolo[3,4-b]pyridin-3-yl)-3,3-dimethyl-2,3-dihydro-1λ^6,2-benzothiazole-1,1-dione] | < 100
12 | O=C1NCCOc2cc(-c3n[nH]c4ncc(-c5ccc6c(c5)CCC(N5CC[C@@H](O)C5)CC6)cc34)ccc21 (stereo partly drawn) [Example 51, 8-(5-(7-((R)-3-Hydroxypyrrolidin-1-yl)-6,7,8,9-tetrahydro-5H-benzo[7]annulen-2-yl)-1H-pyrazolo[3,4-b]pyridin-3-yl)-3,4-dihydrobenzo[f][1,4]oxazepin-5(2H)-one] | < 100

Results, then the molecule that gave them:

Row | IC50 [nM] | SMILES
13 | < 100 | C[C@@H]1CCCN1C1CCc2ccc(-c3cnc4[nH]nc(-c5ccc6c(c5)O[C@@H](C)CNC6=O)c4c3)cc2CC1 (stereo partly drawn) [Example 62, (2S)-2-Methyl-8-(5-{7-[(2R)-2-methylpyrrolidin-1-yl]-6,7,8,9-tetrahydro-5H-benzo[7]annulen-2-yl}-1H-pyrazolo[3,4-b]pyridin-3-yl)-2,3,4,5-tetrahydro-1,4-benzoxazepin-5-one]
14 | < 100 | CC1(N2CCCC2)CCc2ccc(-c3cnc4[nH]nc(-c5ccc6c(c5)OCCNC6=O)c4c3)cc2CC1 (stereo not shown) [Example 22, 8-{5-[7-Methyl-7-(pyrrolidin-1-yl)-6,7,8,9-tetrahydro-5H-benzo[7]annulen-2-yl]-1H-pyrazolo[3,4-b]pyridin-3-yl}-2,3,4,5-tetrahydro-1,4-benzoxazepin-5-one]
15 | < 100 | O=C1NCCOc2cc(-c3n[nH]c4ncc(-c5ccc6c(c5)CCN(C5COC5)CC6)cc34)ccc21 [Example 11, 8-(5-(3-(Oxetan-3-yl)-2,3,4,5-tetrahydro-1H-benzo[d]azepin-7-yl)-1H-pyrazolo[3,4-b]pyridin-3-yl)-3,4-dihydrobenzo[f][1,4]oxazepin-5(2H)-one]
16 | < 100 | CC1(O)CCc2cc(-c3n[nH]c4ncc(-c5ccc6c(c5)CC[C@@H](N5CCCC5)CC6)cc34)ccc21 (stereo partly drawn) [Example 30, 1-Methyl-5-{5-[(7S)-7-(pyrrolidin-1-yl)-6,7,8,9-tetrahydro-5H-benzo[7]annulen-2-yl]-1H-pyrazolo[3,4-b]pyridin-3-yl}-2,3-dihydro-1H-inden-1-ol]
17 | < 100 | C[C@H]1CCCN1C1Cc2ccc(-c3cnc4[nH]nc(-c5ccc6c(c5)OCC(C)(C)NC6=O)c4c3)cc2C1 (stereo partly drawn) [Example 39, 3,3-Dimethyl-8-(5-{2-[(2S)-2-methylpyrrolidin-1-yl]-2,3-dihydro-1H-inden-5-yl}-1H-pyrazolo[3,4-b]pyridin-3-yl)-2,3,4,5-tetrahydro-1,4-benzoxazepin-5-one]
18 | < 100 | O=C1NCCOc2cc(-c3n[nH]c4ncc(-c5ccc6c(c5)CCC(N5CCC[C@@H]5CO)CC6)cc34)ccc21 (stereo partly drawn) [Example 49, 8-(5-{7-[(2R)-2-(Hydroxymethyl)pyrrolidin-1-yl]-6,7,8,9-tetrahydro-5H-benzo[7]annulen-2-yl}-1H-pyrazolo[3,4-b]pyridin-3-yl)-2,3,4,5-tetrahydro-1,4-benzoxazepin-5-one]
19 | < 100 | O=C1NCCOc2cc(-c3n[nH]c4ncc(-c5ccc6c(c5)CCC(N5CCCC5)C6)cc34)ccc21 (stereo not shown) [Example 2, 8-{5-[6-(Pyrrolidin-1-yl)-5,6,7,8-tetrahydronaphthalen-2-yl]-1H-pyrazolo[3,4-b]pyridin-3-yl}-2,3,4,5-tetrahydro-1,4-benzoxazepin-5-one]
